Measured values reported in ChEMBL document CHEMBL1240408, “Turning enzymes ON with small molecules” (Nat Chem Biol, 2010).

How the values were obtained:
[1] = (§1) Activation of rat liver AMPK assessed as concentration required to induce 50 % activity
Caspase-3 (Homo sapiens) = molecular target: T1, Caspase-3 (Homo sapiens) (UniProt P42574); experiment: Induction of autoactivation of procaspase-3 relative to control
T1 sequence (whole entry): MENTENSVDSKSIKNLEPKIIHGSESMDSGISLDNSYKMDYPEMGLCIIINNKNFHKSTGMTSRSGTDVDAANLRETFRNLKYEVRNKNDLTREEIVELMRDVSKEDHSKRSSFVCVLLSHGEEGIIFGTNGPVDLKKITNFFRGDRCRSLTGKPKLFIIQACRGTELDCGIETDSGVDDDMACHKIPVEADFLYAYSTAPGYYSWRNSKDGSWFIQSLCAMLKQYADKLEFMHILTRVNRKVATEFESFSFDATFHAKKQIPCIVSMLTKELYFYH

Rattus norvegicus [2] = species: Rattus norvegicus; experiment: as §1
Rattus norvegicus [3] = species: Rattus norvegicus; experiment: Activation of rat liver AMPK relative to basal activity level; type: tissue-based
Rattus norvegicus [4] = species: Rattus norvegicus; experiment: Activation of rat liver AMPK alpha subunit assessed as concentration required to induce 50 % activity

Compound: Nc1ncnc2c1ncn2[C@@H]1O[C@H](COP(=O)(O)O)[C@@H](O)[C@H]1O [ADENOSINE PHOSPHATE]
- AC50 [1]: 56 µM

Compound: C=CCc1cccc(/C=N/NC(=O)CN2CCN(Cc3ccccc3)CC2)c1O
- fold change (FC) (Caspase-3 (Homo sapiens)): 3

Compound: N#Cc1c(O)c2c(-c3ccc(-c4ccccc4O)cc3)csc2[nH]c1=O
- Activity (Rattus norvegicus [2]): 0.8 µM

Compound: Cc1cc(-c2ccc(/C=C3\S/C(=N\c4ccc(Cl)c(C(=O)O)c4)NC3=O)o2)c([N+](=O)[O-])cc1C
- Activity (Rattus norvegicus [2]): 0.3 µM
- fold change (FC) (Rattus norvegicus [3]): 1.5
- Activity (Rattus norvegicus [4]): 8 µM
